Assay results taken from BindingDB's records for doi:10.1016/j.ejmech.2020.113033 (Leiden University, 2021).

Experiment: Displacement of [3H]dofetilide from human ERG stably expressed in HEK293 cell membranes assessed as unlabelled dofetilide IC50 at 3 uM measured after 60 mins by microbeta liquid scintillation counting method (Rvb = 9.1 to 11.7 nM)

Compared with `O=C(COc1ccc(C(=O)c2cc(Cl)ccc2Br)cc1)Nc1ccc(Cl)c(C(=O)NCC2CC2)c1`, `O=C(COc1ccc(C(=O)c2cc(Cl)ccc2Br)cc1)Nc1cccc(C(=O)NC2CC2)c1` is 1.6-fold lower in IC50: 0.018 µM for the first, 0.011 µM for the second. The second is the more potent here.

Going from `Cc1cc(NC(=O)COc2ccc(C(=O)c3cc(Cl)ccc3Br)cc2)ccn1` to `O=C(COc1ccc(C(=O)c2cc(Cl)ccc2Br)cc1)Nc1cccnc1`, the IC50 falls from 0.06 µM to 0.035 µM (1.7-fold).

Work on `N#Cc1cccc(NC(=O)COc2ccc(C(=O)c3cc(Cl)ccc3Br)cc2)c1F` yielded an IC50 of 0.013 µM.

Experiment: Displacement of [3H]dofetilide from human ERG stably expressed in HEK293 cell membranes assessed as unlabelled dofetilide IC50 at 1 uM measured after 60 mins by microbeta liquid scintillation counting method (Rvb = 9.1 to 11.7 nM)

`O=C(COc1ccc(C(=O)c2cc(Cl)ccc2Br)cc1)Nc1cncc(C(=O)NCC2CC2)c1` gave an IC50 of 0.02 µM.

Experiment: Displacement of [3H]dofetilide from human ERG stably expressed in HEK293 cell membranes assessed as unlabelled dofetilide IC50 at 10 uM measured after 60 mins by microbeta liquid scintillation counting method (Rvb = 9.1 to 11.7 nM)

Compared with `N#Cc1cc(NC(=O)COc2ccc(C(=O)c3cc(Cl)ccc3Br)cc2)ccc1F`, `O=C(COc1ccc(C(=O)c2cc(Cl)ccc2Br)cc1)Nc1ccnc(F)c1` is 3.9-fold lower in IC50: 0.07 µM for the first, 0.018 µM for the second. The second is the more potent here.

`CNC(=O)c1cccc(NC(=O)COc2ccc(C(=O)c3cc(Cl)ccc3Br)cc2)c1` and `O=C(COc1ccc(C(=O)c2cc(Cl)ccc2Br)cc1)Nc1cccc(C(=O)NCC2CC2)c1` are within 1.5-fold of each other in IC50: 0.022 µM for the first, 0.026 µM for the second.

For `O=C(COc1ccc(C(=O)c2ccccc2Br)cc1)Nc1cccnc1`, the IC50 was 0.036 µM.

Experiment: Displacement of [3H]dofetilide from human ERG stably expressed in HEK293 cell membranes assessed as unlabelled dofetilide IC50 at 0.5 uM measured after 60 mins by microbeta liquid scintillation counting method (Rvb = 9.1 to 11.7 nM)

For `O=C(COc1ccc(C(=O)c2cc(Cl)ccc2Br)cc1)Nc1ccnc(C(=O)NCC2CC2)c1`, the IC50 was 0.018 µM.
